Patent publication US20050112079A1, “Depilatories and agents for external use” (KAO CORPORATION, priority 1999, published 2005)
Where no end group is shown, it is not given here.

Tests used:
[1] = tested on: growth-phase hair follicles; test: Growth-phase hair follicle inhibitory effects, number of hair shafts grown per unit area; assay type: in vivo; settings: guinea pig dorsal, 1 μg intracutaneous, fifth day after the administration (FIG. 1)
Description: Solutions (1 μg, each) of endothelin-1, endothelin-2 and endotherin-3 in aliquots of phosphate buffer solution (PBS), which contained 0.1% of bovine serum albumin (BSA), were intracutaneously administered (at 50 μL/site) to the dorsal parts of guinea pigs, respectively, from which hair had been cut off by a hair clipper. Three days after the administration, hair was again cut off by a hair clipper from the administered sites. Two days after the cutting, the numbers of hair shafts grown per unit area at the administered sites were counted.

[2] = tested on: hair at the dorsal part of a guinea pig; test: Depilation inducing effects of endothelin, intracutaneous administration; assay type: in vivo; settings: 0.3 μg intracutaneous (50 μL/site), 10 days after the administration
Description: (§1) A solution of endothelin-1 (0.3 μg) in phosphate buffer solution (PBS), which contained 0.1% of bovine serum albumin (BSA), was intracutaneously administered (at 50 μL/site) to the dorsal part of a guinea pig.

[3] = tested on: growth-phase hair follicle; test: Structural changes of hair follicle structure, hematoxylin-eosin stained dorsal skin; assay type: in vivo; settings: guinea pig, 0.3 μg intracutaneous
Description: as §1, with “[…]” for “0.1%”, “pig. After that, samples were collected day after day from the administered dorsal skin, and tissue samples were prepared by hematoxylin-eosin staining.” for “pig.”

[4] = tested on: hair follicle organs in growth phase isolated from human scalp tissue; test: Growth inhibitory effects on organ-cultured hair follicles; assay type: cell-based
Description: From a human scalp tissue, hair follicle organs in growth phase were surgically isolated under a stereomicroscope. Following a conventional procedure [Philpott M. P., et al., J. Cell Sci., 97, 463-471 (1990)], the isolated hair follicles were subjected to organ culture. Described specifically, endothelin-1 was added to William's E medium which contained L-glutamine (2 mM), hydrocortisone (10 ng/mL), insulin (10 μg/mL), sodium selenite (10 ng/mL) and transferrin (10 μg/mL).

[5] = tested on: regrowth of dorsal hair; test: Hair growth test in mice, application to depilated skin; assay type: in vivo, C3H/HeNCrj mouse; settings: mouse, 0.5 mg in 2.5 mL PEG 400/PEG 3350 (95/5), 25 μL/application once a day over 2 weeks; regrown hair area/depilated area×100
Description: Endothelin-1 (0.5 mg) was dissolved in a mixed solution (2.5 mL) of polyethylene glycol 400 (average molecular weight: 400) and polyethylene glycol 3350 (average molecular weight: 3,350) (mixing ratio: 95/5) to prepare a hair growth inhibitor. Dorsal hair of each 8-week old C3H/HeNCrj mouse was removed with a depilatory cream (over an area of 2×4 cm^2), and the hair growth inhibitor was applied to the depilated site once a day at a dose of 25 μL/application over 2 weeks. A group in which only the solvent was similarly applied was employed as a control group. To observe regrowth of hair, the above-described depilated site on day 14 after the depilation was photographed at a predetermined fixed magnification, and the percentage of a regrown hair area (regrown hair area/depilated area×100) was determined using an image analyzer.

For “endothelin-3 (CTCFTYKDKECVYYCHLDIIW; ends and bridges not checked; cysteine pairing not given here; UniProt P14138 97-117, looked up) [endotherin-3, isoform of endothelin, a peptide composed of 21 amino acid residues]”, the “Number of hair shafts grown per unit area at the administered site” value [1] was “significant (p<0.01) decrease in the number of hair shafts”.
“endothelin-2 (CSCSSWLDKECVYFCHLDIIW; ends and bridges not checked; cysteine pairing not given here; UniProt P20800 49-69, looked up) [isoform of endothelin, a peptide composed of 21 amino acid residues]” was tested, and the “Number of hair shafts grown per unit area at the administered site” value [1] was “significant (p<0.01) decrease in the number of hair shafts”.
With `CC[C@H](C)[C@H](NC(=O)[C@H](CC(=O)O)NC(=O)[C@H](CC(C)C)NC(=O)[C@H](Cc1c[nH]cn1)NC(=O)[C@@H]1CSSC[C@H](N)C(=O)N[C@@H](CO)C(=O)N[C@H]2CSSC[C@H](NC(=O)[C@H](CCC(=O)O)NC(=O)[C@H](CCCCN)NC(=O)[C@H](CC(=O)O)NC(=O)[C@H](CCSC)NC(=O)[C@H](CC(C)C)NC(=O)[C@H](CO)NC(=O)[C@H](CO)NC2=O)C(=O)N[C@@H](C(C)C)C(=O)N[C@@H](Cc2ccc(O)cc2)C(=O)N[C@@H](Cc2ccccc2)C(=O)N1)C(=O)N[C@H](C(=O)N[C@@H](Cc1c[nH]c2ccccc12)C(=O)O)[C@@H](C)CC` [Endothelin-1, endothelin-1] the “Depilation at the administered site” value [2] was “hair shaft falling-off and formation of a marked depilation spot”, the “Number of hair shafts grown per unit area at the administered site” value [1] was “significant (p<0.01) decrease in the number of hair shafts” and the Hair follicle histology ([3]; 1st day after the administration (FIG. 2)) was “regressed image of a growth-phase hair follicle”. For the same compound, the Hair follicle histology ([3]; 3rd day after the administration (FIG. 2)) was “image of a follicular tissue in transition phase”, the “Grown hair follicle length versus control group” value ([4]; day 4 of incubation and the subsequent days (FIG. 3)) was “significant hair growth inhibitory effects” and the “Structural change of incubated hair follicles” value ([4]; during the incubation period (FIG. 4)) was “structural change of the endothelin-treated, growth-phase hair follicles into those similar to resting-phase hair follicles”. For the same compound, the “Percentage of regrown hair area on day 14 after depilation” value [5] was 2.22 Percentage.
